The source of these data is patent US11345699B2, “Apoptosis signal-regulating kinase 1 inhibitors and methods of use thereof” (Enanta Pharmaceuticals, Inc., priority 2018, dated 2022).

pIC50: −log10 of the molar value. Bounds are passed on as bounds.

Sequence of ASK1 (Q99683 whole entry): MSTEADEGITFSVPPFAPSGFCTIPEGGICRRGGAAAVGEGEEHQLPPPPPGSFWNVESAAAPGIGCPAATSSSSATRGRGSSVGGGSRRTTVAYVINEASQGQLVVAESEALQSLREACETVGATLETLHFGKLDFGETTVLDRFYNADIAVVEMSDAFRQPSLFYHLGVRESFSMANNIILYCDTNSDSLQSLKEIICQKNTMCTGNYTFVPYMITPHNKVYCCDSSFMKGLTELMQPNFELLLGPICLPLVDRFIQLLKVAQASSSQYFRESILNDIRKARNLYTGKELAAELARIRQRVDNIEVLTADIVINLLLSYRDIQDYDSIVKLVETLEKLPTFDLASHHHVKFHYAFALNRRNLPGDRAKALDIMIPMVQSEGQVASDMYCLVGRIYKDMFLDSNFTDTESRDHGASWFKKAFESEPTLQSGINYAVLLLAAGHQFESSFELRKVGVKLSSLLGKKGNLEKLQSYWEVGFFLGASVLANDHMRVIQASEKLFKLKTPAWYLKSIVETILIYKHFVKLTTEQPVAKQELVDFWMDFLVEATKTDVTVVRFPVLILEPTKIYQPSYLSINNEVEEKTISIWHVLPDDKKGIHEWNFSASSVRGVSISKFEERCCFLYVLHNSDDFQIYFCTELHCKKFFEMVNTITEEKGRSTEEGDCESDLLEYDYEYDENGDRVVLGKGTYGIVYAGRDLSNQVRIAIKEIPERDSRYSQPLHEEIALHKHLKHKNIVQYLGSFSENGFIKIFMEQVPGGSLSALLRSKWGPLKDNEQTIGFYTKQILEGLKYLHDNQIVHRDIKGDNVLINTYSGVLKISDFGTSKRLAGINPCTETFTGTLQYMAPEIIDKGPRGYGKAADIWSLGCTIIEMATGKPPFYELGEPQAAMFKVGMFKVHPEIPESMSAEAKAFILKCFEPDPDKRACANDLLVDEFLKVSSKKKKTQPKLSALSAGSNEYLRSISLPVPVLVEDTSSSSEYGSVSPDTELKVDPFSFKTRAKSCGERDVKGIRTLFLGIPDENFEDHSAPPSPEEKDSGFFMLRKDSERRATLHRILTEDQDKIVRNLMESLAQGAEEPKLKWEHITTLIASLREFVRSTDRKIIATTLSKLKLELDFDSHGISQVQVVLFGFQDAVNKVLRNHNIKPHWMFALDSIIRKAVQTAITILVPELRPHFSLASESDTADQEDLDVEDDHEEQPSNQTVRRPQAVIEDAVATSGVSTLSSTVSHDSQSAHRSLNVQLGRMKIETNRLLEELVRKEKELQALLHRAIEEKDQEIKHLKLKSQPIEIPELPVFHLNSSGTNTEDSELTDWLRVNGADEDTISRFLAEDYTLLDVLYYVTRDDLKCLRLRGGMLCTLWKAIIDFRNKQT

The assay concerns the target ASK1 (Homo sapiens (Human), UniProt Q99683). Nature of the assay: HTRF KinEASE Assay (TR-FRET), inhibition of ASK1. It is filed as biochemical. The conditions noted are these: ASK1 kinase, 100 μM ATP, 1 μM STK3 peptide substrate, compound 0 to 10 μM. On the procedure: Assay HTRF® KinEASE™ Assay
ASK1 was purchased from Thermofisher (Catalogue #PV4011), ATP was purchased from Sigma (Catalogue #A7699), HTRF® KinEASE™ Assay System was obtained from Cisbio (Bedford, Mass.). ½ Area plate was purchased from Perkin Elmer (Catalogue ##6005560). HTRF® KinEASE™-STK is a generic method for measuring serine/threonine kinase activities using a time-resolved fluorescence resonance energy transfer (TR-FRET) immunoassay. The IC50 value for each compound was determined in the presence of compound (various concentration from 0 to 10 μM) and a fixed amount of ATP and peptide substrates. The test compound, 1 μM STK3 peptide substrate, and […] of ASK1 kinase are incubated with kinase reaction buffer containing 50 mM HEPES Ph 7.5, 0.01% BRIJ-35, 10 mM MgCl2, and 1 mM EGTA for 30 minutes. 100 μM ATP is added to start kinase reaction and incubated for 3 hours. The STK3-antibody labeled with Eu^3+-Cryptate and 125 nM streptavidin-XL665 are mixed in a single addition with stop reagents provided by the Cisbio kit used to stop the kinase reaction. Fluorescence is detected using an Envision Multilabeled 2014 reader from PerkinElmer. The Fluorescence is measured at 615 nm (Cryptate) and 665 nm (XL665) and a ratio of 665 nm/615 nm is calculated for each well. The resulting TR-FRET is proportional to the phosphorylation level. Staurosporine was used as the positive control. IC50 was determined by Xlfit 5.3.
By using above method, the inhibition of ASK1 was evaluated for the compounds of Formula (I). Example numbers correspond to those in Table 5.
The term pIC50 denotes the negative decadic logarithm of the IC50, by convention in mol/L. With `CC(C)n1cnnc1-c1cccc(NC(=O)c2cc3c(cn2)CCN(C(=O)C(C)(C)C)C3)n1` [Example 1, N-(6-(4-isopropyl-4H-1,2,4-triazol-3-yl)pyridin-2-yl)-6-pivaloyl-5,6,7,8-tetrahydro-2,6-naphthyridine-3-carboxamide], the pIC50 is 8.00 to 8.90.
Turning to `CC(C)n1cnnc1-c1cccc(NC(=O)c2cc3c(cn2)CCN(S(=O)(=O)N(C)C)C3)n1` [Example 2, 6-(N,N-dimethylsulfamoyl)-N-(6-(4-isopropyl-4H-1,2,4-triazol-3-yl)pyridin-2-yl)-5,6,7,8-tetrahydro-2,6-naphthyridine-3-carboxamide], the pIC50 is 7.00 to 8.00.
In the case of `CC(C)CN1CCc2cnc(C(=O)Nc3cccc(-c4nncn4C(C)C)n3)cc2C1` [Example 3, 6-isobutyl-N-(6-(4-isopropyl-4H-1,2,4-triazol-3-yl)pyridin-2-yl)-5,6,7,8-tetrahydro-2,6-naphthyridine-3-carboxamide], the pIC50 is 7.00 to 8.00.
As for `COc1cc2c(cc1C(=O)Nc1cccc(-c3nncn3C(C)C)n1)CN(C(=O)OC(C)(C)C)CC2` [Example 5, tert-butyl 7-((6-(4-isopropyl-4H-1,2,4-triazol-3-yl)pyridin-2-yl)carbamoyl)-6-methoxy-3,4-dihydroisoquinoline-2(1H)-carboxylate], the figure is 7.00 to 8.00; as for `CC(C)n1cnnc1-c1cccc(NC(=O)c2cc3c(cc2F)CCN(C(=O)OC(C)(C)C)C3)n1` [Example 10, tert-butyl 6-fluoro-7-((6-(4-isopropyl-4H-1,2,4-triazol-3-yl)pyridin-2-yl)carbamoyl)-3,4-dihydroisoquinoline-2(1H)-carboxylate], 8.00 to 8.90.
As for `CC(C)n1cnnc1-c1cccc(NC(=O)c2cc3c(cn2)CCN(S(=O)(=O)C2CC2)C3)n1` [Example 13, 6-(cyclopropylsulfonyl)-N-(6-(4-isopropyl-4H-1,2,4-triazol-3-yl)pyridin-2-yl)-5,6,7,8-tetrahydro-2,6-naphthyridine-3-carboxamide], the figure is 8.00 to 8.90; as for `CCOC(=O)N1CCc2cc(OC)c(C(=O)Nc3cccc(-c4nncn4C(C)C)n3)cc2C1` [Example 17, ethyl 7-((6-(4-isopropyl-4H-1,2,4-triazol-3-yl)pyridin-2-yl)carbamoyl)-6-methoxy-3,4-dihydroisoquinoline-2(1H)-carboxylate], 8.00 to 8.90.
As for `CC(C)n1cnnc1-c1cccc(NC(=O)c2cc3c(cc2F)CCN(C(=O)OCC(F)(F)F)C3)n1` [Example 21, 2,2,2-trifluoroethyl 6-fluoro-7-((6-(4-isopropyl-4H-1,2,4-triazol-3-yl)pyridin-2-yl)carbamoyl)-3,4-dihydroisoquinoline-2(1H)-carboxylate], the figure is 8.00 to 8.90; as for `CC(C)n1cnnc1-c1cccc(NC(=O)c2cc3c(cn2)CCN(C(=O)OCC(F)(F)F)C3)n1` [Example 25, 2,2,2-trifluoroethyl 7-((6-(4-isopropyl-4H-1,2,4-triazol-3-yl)pyridin-2-yl)carbamoyl)-3,4-dihydro-2,6-naphthyridine-2(1H)-carboxylate], 8.00 to 8.90.
In the case of `C[C@H](CO)n1cnnc1-c1cccc(NC(=O)c2cc3c(cn2)CCN(S(=O)(=O)C2CC2)C3)n1` [Example 38, (R)-6-(cyclopropylsulfonyl)-N-(6-(4-(1-hydroxypropan-2-yl)-4H-1,2,4-triazol-3-yl)pyridin-2-yl)-5,6,7,8-tetrahydro-2,6-naphthyridine-3-carboxamide], the pIC50 is 7.00 to 8.00.
As for `COc1cc2c(cc1C(=O)Nc1cccc(-c3nnnn3[C@H](C)CO)n1)CN(c1ncccn1)CC2` [Example 84, (R)-N-(6-(1-(1-hydroxypropan-2-yl)-1H-tetrazol-5-yl)pyridin-2-yl)-6-methoxy-2-(pyrimidin-2-yl)-1,2,3,4-tetrahydroisoquinoline-7-carboxamide], the figure is 8.00 to 8.90; as for `COCCOC(=O)N1CCc2cc(OC)c(C(=O)Nc3cccc(-c4nnnn4[C@H](C)CO)n3)cc2C1` [Example 96], greater than 8.90; as for `COc1cc2c(cc1C(=O)Nc1cccc(-c3nnnn3[C@H](C)CO)n1)CN(C(=O)c1cnn(C3CC3)c1)CC2` [Example 97], greater than 8.90.
The same measure for `COc1cc2c(cc1C(=O)Nc1cccc(-c3nnnn3[C@H](C)CO)n1)CN(c1c(N)c(=O)c1=O)CC2` [Example 98, (R)-2-(2-amino-3,4-dioxocyclobut-1-en-1-yl)-N-(6-(1-(1-hydroxypropan-2-yl)-1H-tetrazol-5-yl)pyridin-2-yl)-6-methoxy-1,2,3,4-tetrahydroisoquinoline-7-carboxamide]: 8.00 to 8.90; for `C[C@H](CO)n1nnnc1-c1cccc(NC(=O)c2cc3c(cn2)CCN(C(=O)C(C)(C)CO)C3)n1` [Example 99]: 7.00 to 8.00; for `C[C@H](CO)n1nnnc1-c1cccc(NC(=O)c2cc3c(cn2)CCN(C(=O)c2cnn(C4CC4)c2)C3)n1` [Example 100]: 8.00 to 8.90.
As for `COc1cc2c(cc1C(=O)Nc1cccc(-c3nnnn3[C@H](C)CO)n1)CN(C(=O)c1ccccn1)CC2` [Example 101], the figure is greater than 8.90; as for `COc1cc2c(cc1C(=O)Nc1cccc(-c3nnnn3[C@H](C)CO)n1)CN(C(=O)c1cc3ccccc3cn1)CC2` [Example 102], 8.00 to 8.90.
In turn, `CCOC(=O)N1CCc2cc(F)c(C(=O)Nc3cccc(-c4nncn4[C@H](C)CF)n3)cc2C1` [Example 103] had a pIC50 of 8.00 to 8.90.
`COc1cc2c(cc1C(=O)Nc1cccc(-c3nnnn3[C@H](C)CO)n1)CN(S(=O)(=O)c1ccccn1)CC2` [Example 104] gave a pIC50 greater than 8.90.
As for `COc1cc2c(cc1C(=O)Nc1cccc(-c3nnnn3[C@H](C)CO)n1)CN(C(=O)[C@](C)(O)C(F)(F)F)CC2` [Example 105], the figure is greater than 8.90; as for `C[C@H](CO)n1nnnc1-c1cccc(NC(=O)c2cc3c(cn2)CCN(C(=O)c2cn(C4CC4)cn2)C3)n1` [Example 106], 8.00 to 8.90.
The same measure for `CCOC(=O)N1CCc2cc(F)c(C(=O)Nc3cccc(-c4nncn4[C@@H](C)CF)n3)cc2C1` [Example 107]: 8.00 to 8.90.
As for `C[C@H](CO)n1nnnc1-c1cccc(NC(=O)c2cc3c(cn2)CCN(c2ncccn2)C3)n1` [Example 108, (R)—N-(6-(1-(1-hydroxypropan-2-yl)-1H-tetrazol-5-yl)pyridin-2-yl)-6-(pyrimidin-2-yl)-5,6,7,8-tetrahydro-2,6-naphthyridine-3-carboxamide], the pIC50 is 8.00 to 8.90.
The same measure for `CCOC(=O)N1CCc2cc(F)c(C(=O)Nc3cccc(-c4nnnn4[C@H](C)CO)n3)cc2C1` [Example 109]: 8.00 to 8.90; for `COCCOC(=O)N1CCc2cc(F)c(C(=O)Nc3cccc(-c4nnnn4[C@H](C)CO)n3)cc2C1` [Example 110]: 7.00 to 8.00.
`CCNC(=O)N1CCc2cc(F)c(C(=O)Nc3cccc(-c4nnnn4[C@H](C)CO)n3)cc2C1` [Example 111]: the pIC50 was 8.00 to 8.90.
`COc1cc2c(cc1C(=O)Nc1cccc(-c3nnnn3[C@H](C)CO)n1)CN(C(=O)c1cnccn1)CC2` [Example 112]: the pIC50 is greater than 8.90.
As for `COc1cc2c(cc1C(=O)Nc1cccc(-c3nnnn3[C@H](C)CO)n1)CN(C(=O)[C@@H](O)CC(C)C)CC2` [Example 113], the figure is greater than 8.90.
Molecule `COc1cc2c(cc1C(=O)Nc1cccc(-c3nnnn3[C@H](C)CO)n1)CN(C(=O)C1(O)CC1)CC2` [Example 114] had a pIC50 greater than 8.90.
`COc1cc2c(cc1C(=O)Nc1cccc(-c3nnnn3[C@H](C)CO)n1)CN(C(=O)C(C)(C)O)CC2` [Example 115] had a negative-log IC50 (pIC50) greater than 8.90.
`C[C@H](CO)n1nnnc1-c1cccc(NC(=O)c2cc3c(cc2F)CCN(C(=O)N2CCCCC2)C3)n1` [Example 116] gave a pIC50 of 8.00 to 8.90.
As for `C[C@H](CO)n1nnnc1-c1cccc(NC(=O)c2cc3c(cc2F)CCN(S(=O)(=O)NC2CC2)C3)n1` [Example 117], the figure is 7.00 to 8.00; as for `CCNS(=O)(=O)N1CCc2cc(F)c(C(=O)Nc3cccc(-c4nnnn4[C@H](C)CO)n3)cc2C1` [Example 118], 8.00 to 8.90; as for `C[C@H](CO)n1nnnc1-c1cccc(NC(=O)c2cc3c(cc2F)CCN(S(=O)(=O)C2CC2)C3)n1` [Example 119], 7.00 to 8.00.
As for `C[C@H](CO)n1nnnc1-c1cccc(NC(=O)c2cc3c(cc2F)CCN(C2CC2)C3)n1` [Example 120], the figure is 7.00 to 8.00.
As for `C[C@H](CO)n1nnnc1-c1cccc(NC(=O)c2cc3c(cc2F)CCN(Cc2ccc(F)cc2)C3)n1` [Example 121], the figure is 7.00 to 8.00; as for `C[C@H](CO)n1nnnc1-c1cccc(NC(=O)c2cc3c(cc2F)CCN(c2ccccn2)C3)n1` [Example 122], 8.00 to 8.90.
Molecule `C[C@H](CO)n1nnnc1-c1cccc(NC(=O)c2cc3c(cc2F)CCN(c2ncccn2)C3)n1` [Example 123] had a pIC50 of 8.00 to 8.90.
As for `COCCC(=O)N1CCc2cc(OC)c(C(=O)Nc3cccc(-c4nnnn4[C@H](C)CO)n3)cc2C1` [Example 124], the figure is greater than 8.90.
As for `COCCC(=O)N1CCc2cc(OC)c(C(=O)Nc3cccc(-c4nncn4C(C)C)n3)cc2C1` [Example 125], the figure is greater than 8.90.
